Values quoted from earlier work as cited in patent US9814623B2, “Antimicrobial gas impregnating devices and methods” (ENOX (ISRAEL) LTD., priority 2007, dated 2017).

Key:
Candida albicans = conditions: exogenous gNO at 200 ppm for extended periods of time
[1] = test system: nosocomial pneumonia caused by microbial pathogens such as S. aureus and P. aeruginosa; conditions: exogenous gNO at 200 ppm
[2] = test system: cultured human dermal fibroblasts; conditions: exogenous gNO at 200 ppm for extended periods of time
Group B Streptococcus = conditions: exogenous gNO at 200 ppm for extended periods of time
Staphylococcus aureus = conditions: exogenous gNO at 200 ppm for extended periods of time
Pseudomonas aeruginosa = conditions: exogenous gNO at 200 ppm for extended periods of time
Escherichia coli = conditions: exogenous gNO at 200 ppm for extended periods of time
[3] = test system: infections after tympanostomy tube placement; conditions: otic drops after tympanostomy tube placement

Row | Molecule | growth of Candida albicans (Candida albicans) | time to clear nosocomial pneumonia pathogens [1] | cytotoxic effects on cultured human dermal fibroblasts [2] | growth of Group B Streptococcus (Group B Streptococcus) | growth of Staphylococcus aureus (Staphylococcus aureus) | growth of Pseudomonas aeruginosa (Pseudomonas aeruginosa) | growth of Escherichia coli (Escherichia coli) | incidence of infection [3]
1 | [N]=O [gNO, nitric oxide] | inhibited and prevented the growth | about 6 hours | without any cytotoxic effects | inhibited and prevented the growth | inhibited and prevented the growth | inhibited and prevented the growth | inhibited and prevented the growth | –
2 | Gentamicin | – | – | – | – | – | – | – | significantly reduced
